Earlier results as cited in patent US20040018533A1, “Diagnosing predisposition to fat deposition and therapeutic methods for reducing fat deposition and treatment of associated conditions” (priority 2002, published 2004).

Biological target: P2X4 (Homo sapiens, UniProt Q99571)
Settings: Xenopus oocytes

Chain of P2X4 (Q99571 whole entry, species assumed): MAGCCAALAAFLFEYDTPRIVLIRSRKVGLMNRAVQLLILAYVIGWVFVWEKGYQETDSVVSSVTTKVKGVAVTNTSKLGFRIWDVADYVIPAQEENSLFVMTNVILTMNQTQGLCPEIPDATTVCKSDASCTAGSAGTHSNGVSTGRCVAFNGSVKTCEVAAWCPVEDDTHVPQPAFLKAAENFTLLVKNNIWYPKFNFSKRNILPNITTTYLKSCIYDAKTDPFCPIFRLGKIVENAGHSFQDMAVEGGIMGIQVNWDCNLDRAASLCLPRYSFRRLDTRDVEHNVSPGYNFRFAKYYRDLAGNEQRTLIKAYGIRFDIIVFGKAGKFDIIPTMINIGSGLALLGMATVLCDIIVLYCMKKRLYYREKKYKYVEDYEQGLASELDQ

For CCO [ethanol], the “effect on P2X4 function” value is listed as “inhibits P2X4 function”.
